Literature values as cited in patent publication US12637441B2, “Prodrugs of the tyrosine kinase inhibitor for treating cancer” (RISEN (SUZHOU) PHARMA TECH CO., LTD., priority 2019, dated 2026).

Structure (SMILES): CNC(=O)c1ccccc1Sc1ccc2c(/C=C/c3ccccn3)n[nH]c2c1 [axitinib, N-methyl-2-((3-((1E)-2-(2-pyridinyl)ethenyl)-1H-indazol-6-yl)thio)benzamide]
- patients in whom the most common side effects occur: more than 20%
